Where two headings read alike, the source gives them in different places.
System: adenovirus type 6 (ADV6)
Assay: Evaluation of anti-adenovirus activity: CRL-11516 cells infected with ADV6, anti-hexon staining, count of stained cells
Format: cell-based
Details: CRL-11516 cells infected with ADV6, 48 hours culture, concentration reducing dark brown-stained cells by 50%, read-out: Anti-AdV activity EC50
Procedure: A system in which CRL-11516 cells (available from ATCC) were infected with adenovirus type 6 (hereinafter, referred to as ADV6) was constructed, and a test for evaluating the anti-adenovirus activity of the compound according to the embodiment of the present invention and the compound of Comparative Example was carried out using the system. The test for evaluating the anti-adenovirus activity was carried out according to the method described below.
CRL-11516 cells were added to a 96-well plate at a cell density of 1×10^4 cells/well and cultured at 37° C. for 24 hours. After the culture was completed, the cell culture liquid was removed, and a serial dilution (100 μL) of the compound according to the embodiment of the present invention or the compound of Comparative Example was added. ADV6 (corresponding to 50TCID50) was added thereto, followed by culturing at 37° C. for 48 hours.
After the culture was completed, the infected cells were stained using Adeno-X Rapid Titer Kit (manufactured by Takara Bio Inc.). 100% methanol was added thereto and the cells were fixed at −20° C. for 10 minutes. The plate was washed three times with phosphate buffered saline (hereinafter, referred to as PBS) and then Mouse Anti-Hexon Antibody was added thereto, followed by incubation at 37° C. for 1 hour. After the incubation was completed, the plate was washed three times with PBS, and Rat Anti-Mouse Antibody was added thereto, followed by incubation at 37° C. for 1 hour. After the incubation was completed, a mixed staining solution of Stable Peroxidase Buffer:DAB Substrate=10:1 was added thereto, followed by incubation at room temperature for 10 minutes for staining of the cells.
The number of dark brown-stained cells was counted under a microscope, and the concentration of the test drug that reduces the dark brown-stained cells by 50% was defined as EC50. EC50 values were calculated for the triplicate test results, and a mean value and a standard deviation thereof were determined.

Compound | EC50 [nM] | EC50 (Human mastadenovirus C, 48 h) [nM] | other results
COC(=O)[C@H](C)NP(=O)(OCCSC(=O)C(C)(C)CO)OC[C@@H]1C=C[C@H](n2cnc3c(Cl)nc(N)nc32)C1 (stereo partly drawn) [Example 5-1, methyl ((((1 S,4R)-4-(2-amino-6-chloro-9H-purin-9-yl)cyclopent-2-en-1-yl)methoxy)(2-((3-hydroxy-2,2-dimethylpropanoyl)thio)ethoxy)phosphoryl)-L-alaninate] | – | – | EC50 (Human mastadenovirus C): 100 to 1000 nM
COC(=O)[C@H](C)NP(=O)(OC[C@@H]1C=C[C@H](n2cnc3c(Cl)nc(N)nc32)C1)Oc1ccc(Cl)cc1 (stereo partly drawn) [Example 1-2-4, methyl ((((1S,4R)-4-(2-amino-6-chloro-9H-purin-9-yl)cyclopent-2-en-1-yl)methoxy)(4-chlorophenoxy)phosphoryl)-L-alaninate] | < 10 | – | –
CC(C)OC(=O)[C@H](C)NP(=O)(OC[C@@H]1C=C[C@H](n2cnc3c(NC4CC4)nc(N)nc32)C1)Oc1ccccc1 (stereo partly drawn) [Example 2-2-2, Isopropyl ((((1S,4R)-4-(2-amino-6-(cyclopropyl-amino)-9H-purin-9-yl)cyclopent-2-en-1-yl)methoxy) (phenoxy)phosphoryl)-L-alaninate] | – | 100 to 1000 | –
Isopropyl ((((1S,4R)-4-(2-amino-6-methoxy- 9H-purin-9-yl)cyclopent-2-en-1- yl)methoxy)(naphthalen-1-yloxy) phosphoryl)-L-alaninate [Example 6-2-26] | 10 to 100 | – | –
COc1nc(N)nc2c1ncn2[C@H]1C=C[C@@H](COP(=O)(N[C@@H](C)C(=O)OC(C)C)Oc2cccc3ccccc23)C1 (stereo partly drawn) [Example 6-2-25] | < 10 | – | –
COC(=O)[C@H](C)NP(=O)(OC[C@@H]1C=C[C@H](n2cnc3c(Cl)nc(N)nc32)C1)Oc1ccc(Cl)cc1 (stereo partly drawn) [Example 4-5-1, methyl ((((1 S,4R)-4-(2-amino-6-chloro-9H-purin-9-yl)cyclopent-2-en-1-yl)methoxy)(4-chlorophenoxy)phosphoryl)-L-alaninate] | – | < 10 | –
CC(C)OC(=O)[C@H](C)NP(=O)(OC[C@@H]1C=C[C@H](n2cnc3c(Cl)nc(N)nc32)C1)Oc1ccccc1 (stereo partly drawn) [Example 4-3-2, Isopropyl ((((1 S,4R)-4-(2-amino-6-chloro-9H-purin-9-yl)cyclopent-2-en-1-yl)methoxy)(phenoxy)phosphoryl)-L-alaninate] | 100 to 1000 | – | –
COC(=O)[C@H](C)NP(=O)(OC[C@@H]1C=C[C@H](n2cnc3c(N(C)C)nc(N)nc32)C1)Oc1ccc(Br)cc1 (stereo partly drawn) [Example 1-2-45, Methyl ((((1S,4R)-4-(2-amino-6-(dimethylamino)-9H-purin-9-yl)cyclopent-2-en-1-yl)methoxy)(4-bromophenoxy)phosphoryl)-L-alaninate] | – | < 10 | –
COc1nc(N)nc2c1ncn2[C@H]1C=C[C@@H](COP(=O)(N[C@@H](C)C(=O)OC(C)C)Oc2ccccc2)C1 (stereo partly drawn) [Example 4-4-1, Isopropyl ((((1 S,4R)-4-(2-amino-6-methoxy-9H-purin-9-yl)cyclopent-2-en-1-yl)methoxy)(phenoxy)phosphoryl)-L-alaninate] | 10 to 100 | – | –
